Measurements as given in patent publication US20230077362A1 (CORTEVA AGRISCIENCE LLC, priority 2019, published 2023).
Where two headings read alike, the source gives them in different places.

Legend:
Format in all cases: in vivo
[1] = test system: Beet Armyworm (Spodoptera exigua) ("BAW"), second instar larvae; assay: Bioassay on beet armyworm (BAW), 128-well diet tray assay; conditions: Spodoptera exigua
In short: (§1)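 Sealed trays, 25° C., 14:10 light:dark, 5–7 d. Per-well % mortality recorded, mean of eight wells reported.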

[2] = test system: Green Peach Aphid ("GPA") (Myzus persicae), wingless adult and nymph stages; assay: Bioassay on green peach aphid (GPA), foliar spray on infested cabbage seedlings; conditions: Myzus persicae, foliar, 72 h
In short: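 Values are corrected % control, 100*(X−Y)/X, from live aphid counts per plant under a microscope, treated versus solvent-check plants. Four infested seedlings (20-50 GPA each) per treatment were sprayed to runoff and kept three days near 25° C at ambient RH.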

[3] = test system: Cabbage Looper (Trichoplusia ni) ("CL"), second instar larvae; assay: Bioassay on cabbage looper (CL), 128-well diet tray assay; conditions: Trichoplusia ni
In short: as §1

[4] = read-out: BAW (Biological Results, rating)
[5] = read-out: GPA (Biological Results, rating)
[6] = read-out: CL (Biological Results, rating)

## CCc1cc(-c2ncn(-c3ccc(OC(F)(F)F)cc3)n2)ccc1NC(=O)/N=C1\SCC(=O)N1c1cc(C)ccc1COC [Compound J72, (Z)-1-(2-Ethyl-4-(1-(4-(trifluoromethoxy)phenyl)-1H-1,2,4-triazol-3-yl)phenyl)-3-(3-(2-(methoxymethyl)-5-methylphenyl)-4-oxothiazolidin-2-ylidene)urea]
[1]; [4]
  pest or weed control at 50 µg/cm2: 50 to 100%
[2]; [5]
  pest or weed control at 200 µg/mL: 0 to 80%
[3]; [6]
  pest or weed control at 50 µg/cm2: 50 to 100%

## O=C(/N=C1\SCC(=O)N1c1ccccc1COCC(F)(F)F)Nc1ccc(-c2ncn(-c3ccc(OC(F)(F)F)cc3)n2)cc1F [Compound J659, (Z)-1-(2-Fluoro-4-(1-(4-(trifluoromethoxy)phenyl)-1H-1,2,4-triazol-3-yl)phenyl)-3-(4-oxo-3-(2-((2,2,2-trifluoroethoxy)methyl)phenyl)thiazolidin-2-ylidene)urea]
[1]; read-out: BAW rating
  pest or weed control at 50 µg/cm2: 50 to 100%
[2]; read-out: GPA rating
  pest or weed control at 200 µg/mL: 0 to 80%
[3]; read-out: CL rating
  pest or weed control at 50 µg/cm2: 50 to 100%

## CCOCc1ccc(C)cc1N1C(=O)CS/C1=N\C(=O)Nc1ccc(-c2ncn(-c3ccc(OC(F)(F)F)cc3)n2)cc1F [Compound J180, (Z)-1-(3-(2-(Ethoxymethyl)-5-methylphenyl)-4-oxothiazolidin-2-ylidene)-3-(2-fluoro-4-(1-(4-(trifluoromethoxy)phenyl)-1H-1,2,4-triazol-3-yl)phenyl)urea]
[1]; [4]
  pest or weed control at 50 µg/cm2: 50 to 100%
[2]; [5]
  pest or weed control at 200 µg/mL: 0 to 80%
[3]; [6]
  pest or weed control at 50 µg/cm2: 50 to 100%

## Cc1ccc(OCCC(F)(F)F)c(N2C(=O)CS/C2=N\C(=O)Nc2ccc(-c3ncn(-c4ccc(OC(F)(F)F)cc4)n3)cc2F)c1 [Compound J35, (Z)-1-(2-Fluoro-4-(1-(4-(trifluoromethoxy)phenyl)-1H-1,2,4-triazol-3-yl)phenyl)-3-(3-(5-methyl-2-(3,3,3-trifluoropropoxy)phenyl)-4-oxothiazolidin-2-ylidene)urea]
[1]; [4]
  pest or weed control at 50 µg/cm2: 50 to 100%
[2]; [5]
  pest or weed control at 200 µg/mL: 0 to 80%
[3]; [6]
  pest or weed control at 50 µg/cm2: 50 to 100%

## CCOCc1ccc(C)cc1N1C(=O)CS/C1=N\C(=O)Nc1ccc(-c2ncn(-c3ccc(OC(F)(F)C(F)(F)F)cc3)n2)cc1F [Compound J663, (Z)-1-(3-(2-(Ethoxymethyl)-5-methylphenyl)-4-oxothiazolidin-2-ylidene)-3-(2-fluoro-4-(1-(4-(perfluoroethoxy)phenyl)-1H-1,2,4-triazol-3-yl)phenyl)urea]
[1]; read-out: BAW rating
  pest or weed control at 50 µg/cm2: 50 to 100%
[2]; read-out: GPA rating
  pest or weed control at 200 µg/mL: 0 to 80%
[3]; read-out: CL rating
  pest or weed control at 50 µg/cm2: 50 to 100%

## Cc1ccc(OCCCC(F)(F)F)c(N2C(=O)CS/C2=N\C(=O)Nc2ccc(-c3ncn(-c4ccc(SC(F)(F)F)cc4)n3)cc2F)c1 [Compound J225, (Z)-1-(2-Fluoro-4-(1-(4-((trifluoromethyl)thio)phenyl)-1H-1,2,4-triazol-3-yl)phenyl)-3-(3-(5-methyl-2-(4,4,4-trifluorobutoxy)phenyl)-4-oxothiazolidin-2-ylidene)urea]
[1]; [4]
  pest or weed control at 50 µg/cm2: 50 to 100%
[2]; [5]
  pest or weed control at 200 µg/mL: 0 to 80%
[3]; [6]
  pest or weed control at 50 µg/cm2: 50 to 100%

## N#Cc1ccc(OCCC(F)(F)F)c(N2C(=O)CS/C2=N\C(=O)Nc2ccc(-c3ncn(-c4ccc(OC(F)(F)F)cc4)n3)cc2F)c1 [Compound J103, (Z)-1-(3-(5-Cyano-2-(3,3,3-trifluoropropoxy)phenyl)-4-oxothiazolidin-2-ylidene)-3-(2-fluoro-4-(1-(4-(trifluoromethoxy)phenyl)-1H-1,2,4-triazol-3-yl)phenyl)urea]
[1]; [4]
  pest or weed control at 50 µg/cm2: 50 to 100%
[2]; [5]
  pest or weed control at 200 µg/mL: 0 to 80%
[3]; [6]
  pest or weed control at 50 µg/cm2: 50 to 100%

## Cc1ccc(OCC(F)(F)F)c(N2C(=O)CS/C2=N\C(=O)Nc2ccc(-c3ncn(-c4cccc(C(F)(F)F)c4)n3)cc2F)c1 [Compound J122, (Z)-1-(2-Fluoro-4-(1-(3-(trifluoromethyl)phenyl)-1H-1,2,4-triazol-3-yl)phenyl)-3-(3-(5-methyl-2-(2,2,2-trifluoroethoxy)phenyl)-4-oxothiazolidin-2-ylidene)urea]
[1]; [4]
  pest or weed control at 50 µg/cm2: 50 to 100%
[2]; [5]
  pest or weed control at 200 µg/mL: 0 to 80%
[3]; [6]
  pest or weed control at 50 µg/cm2: 50 to 100%
